Results on 29 compounds are retold here after patent US20100137313A1 (ASTRAZENECA AB, priority 2008, published 2010).

SMILES strings stand for the structures.

Chain of S. pneumoniae Topoisomerase IV ATPase (ParE) (Q59961 whole entry): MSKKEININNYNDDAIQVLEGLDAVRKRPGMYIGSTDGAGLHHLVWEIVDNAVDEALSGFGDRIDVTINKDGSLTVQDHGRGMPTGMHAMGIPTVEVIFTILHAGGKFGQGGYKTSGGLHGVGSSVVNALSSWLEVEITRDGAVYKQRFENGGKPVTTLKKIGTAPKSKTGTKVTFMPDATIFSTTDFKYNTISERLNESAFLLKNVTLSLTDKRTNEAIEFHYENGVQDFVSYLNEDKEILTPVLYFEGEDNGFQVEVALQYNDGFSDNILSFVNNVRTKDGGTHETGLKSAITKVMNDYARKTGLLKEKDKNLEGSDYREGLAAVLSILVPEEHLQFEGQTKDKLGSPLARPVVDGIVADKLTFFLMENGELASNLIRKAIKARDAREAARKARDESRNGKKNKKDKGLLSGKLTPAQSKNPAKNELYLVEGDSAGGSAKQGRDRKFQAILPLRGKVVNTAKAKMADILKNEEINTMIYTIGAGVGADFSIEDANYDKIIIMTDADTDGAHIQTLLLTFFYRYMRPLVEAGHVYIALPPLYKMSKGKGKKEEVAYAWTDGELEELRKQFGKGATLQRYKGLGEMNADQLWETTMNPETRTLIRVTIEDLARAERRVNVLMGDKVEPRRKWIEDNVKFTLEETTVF

The target in the assay is S. pneumoniae Topoisomerase IV ATPase (ParE) (Streptococcus pneumoniae serotype 4, UniProt Q59961). Nature of the assay: S. pneumoniae Topoisomerase IV ATPase inhibition. The class given is biochemical. The note with it: values marked * are an average of two or more data points, read-out: % Inh (13 μM) of S. pneumoniae Topoisomerase IV ATPase. How it is done:
S. pneumoniae Topoisomerase IV ATPase Inhibition Activity: Compounds may be tested for inhibition of S. pneumoniae ParE ATPase activity using an ammonium molybdate/malachite green-based phosphate detection assay (Lanzetta, P. A., L. J. Alvarez, P. S. Reinach, and O. A. Candia, 1979, 100: 95-97). Assays are performed in multiwell plates in 30 μl reactions containing: 20 mM Tris buffer pH 8.0, 50 mM ammonium acetate, 8.0 mM magnesium chloride, 0.5 mM ethylenediaminetetraacetic acid, 5% glycerol, 5 mM 1,4-Dithio-DL-threitol, 0.005% Brij-35, 5 μg/ml sheared salmon sperm DNA, 1.25 nM S. pneumoniae ParE, 160 μM ATP, and test compound in dimethylsulfoxide. Reactions are quenched with 30 μl of ammonium molybdate/malachite green detection reagent containing 1.2 mM malachite green hydrochloride, 8.5 mM ammonium molybdate tetrahydrate, and 1 M hydrochloric acid. Plates are read in an absorbance plate reader at 650 nm and percent inhibition values are calculated using dimethylsulfoxide (2%)-containing reactions as 0% inhibition and EDTA-containing ([…]) reactions as 100% inhibition controls. An IC50 measurement of compound potency for each compound can be determined from reactions performed in the presence of 10 different compound concentrations.
Many of the compounds of the invention were tested in an assay substantially similar to the assays described above for measuring the inhibition of E.coli GyrB ATPase, E. coli Topoisomerase IV ATPase, S. aureus GyrB ATPase, and S. pneumoniae Topoisomerase IV ATPase, and had IC50 values of <200 μM in one or more assays.
Turning to `O=C(O)[C@@H]1C[C@H]1c1cccc(-c2cnc(Nc3ccc(F)c(Cl)c3)nc2-n2ccc(C(F)(F)F)n2)c1` (racemic) [Example 574, (1,2-trans)-2-(3-(2-(3-chloro-4-fluorophenylamino)-4-(3-(trifluoromethyl)-1H-pyrazol-1-yl)pyrimidin-5-yl)phenyl)cyclopropanecarboxylic acid], the inhibition at 13 µM worked out at 96%.

As to `CS(=O)(=O)NCCCNc1nc(Nc2ccc(F)c(Cl)c2)ncc1-c1cncnc1` [Ex 378, N-(3-(2-(3-chloro-4-fluorophenylamino)-5,5′-bipyrimidin-4-ylamino)propyl) methanesulfonamide], the inhibition at 13 µM came out at 75.2%. Then `O=C(O)c1cncc(-c2cnc(Nc3cccc(Cl)c3)nc2-n2ccc(C(F)(F)F)n2)c1` [Ex 745, 5-{2-[(3-chlorophenyl)amino]-4-[3-(trifluoromethyl)-1H-pyrazol-1-yl]pyrimidin-5-yl}pyridine-3-carboxylic acid], with 100%; and `COc1ncc(-c2cnc(Nc3ccc(F)c(Cl)c3)nc2NCCCN(C)C)cn1` [Example 1, N^2-(3-chloro-4-fluorophenyl)-N^4-(3-(dimethylamino)propyl)-2′-methoxy-5,5′-bipyrimidine-2,4-diamine], with 5.14%. The value for `COC(=O)c1cccc(-c2cnc(Nc3ccc(F)c(Cl)c3)nc2NCCCN(C)C)c1` [Example 2, methyl 3-(2-(3-chloro-4-fluorophenylamino)-4-(3-(dimethylamino)propylamino)pyrimidin-5-yl)benzoate] was 77.8%; that for `CN(C)CCCNc1nc(Nc2ccc(F)c(Cl)c2)ncc1-c1cccc(NS(C)(=O)=O)c1` [Example 3, N-(3-(2-(3-chloro-4-fluorophenylamino)-4-(3-(dimethylamino)propylamino)pyrimidin-5-yl)phenyl)methanesulfonamide] was 56.8%.

Regarding `CN(C)CCCNc1nc(Nc2ccc(F)c(Cl)c2)ncc1-c1ccc2cc[nH]c2c1` [Example 4, N^2-(3-chloro-4-fluorophenyl)-N^4-(3-(dimethylamino)propyl)-5-(1H-indol-6-yl)pyrimidine-2,4-diamine], the inhibition at 13 µM came out at 93.1%. Then `CCOC(=O)c1cncc(-c2cnc(Nc3ccc(F)c(Cl)c3)nc2NCCCN(C)C)c1` [Example 5, ethyl 5-(2-(3-chloro-4-fluorophenylamino)-4-(3-(dimethylamino)propylamino)pyrimidin-5-yl) nicotinate], with 104%. For `CCOC(=O)c1ccc(-c2cnc(Nc3ccc(F)c(Cl)c3)nc2NCCCN(C)C)cc1` [Example 6, Ethyl 4-(2-(3-chloro-4-fluorophenylamino)-4-(3-(dimethylamino)propylamino)pyrimidin-5-yl)benzoate], the inhibition at 13 µM turned out to be 102%.

For `COc1ccc(-c2cnc(Nc3ccc(F)c(Cl)c3)nc2NCCCN(C)C)cc1C(F)(F)F` [Example 7, N^2-(3-chloro-4-fluorophenyl)-N^4-(3-(dimethylamino)propyl)-5-(4-methoxy-3(trifluoromethyl)phenyl)pyrimidine-2,4-diamine], the inhibition at 13 µM is 98.7%. With `COc1cc(-c2cnc(Nc3ccc(F)c(Cl)c3)nc2NCCCN(C)C)cc(OC)n1` [Example 8, N^2-(3-chloro-4-fluorophenyl)-5-(2,6-dimethoxypyridin-4-yl)-N^4-(3-(dimethylamino)propyl)-pyrimidin-2,4-diamine], the inhibition at 13 µM was found to be 87.6%.

With `CN(C)CCCNc1nc(Nc2ccc(F)c(Cl)c2)ncc1-c1cc2ccccc2o1` [Example 9, 5-(benzofuran-2-yl)-N^2-(3-chloro-4-fluorophenyl)-N^4-(3-(dimethylamino)propyl)pyrimidine-2,4-diamine], the inhibition at 13 µM stood at 60%. The value for `COc1cc(-c2cnc(Nc3ccc(F)c(Cl)c3)nc2NCCCN(C)C)cc(OC)c1OC` [Example 10, N^2-(3-chloro-4-fluorophenyl)-N^4-(3-(dimethylamino)propyl)-5-(3,4,5-trimethoxyphenyl)pyrimidin-2,4-diamine] was 99.3%; that for `CN(C)CCCNc1nc(Nc2ccc(F)c(Cl)c2)ncc1-c1cccc(NS(=O)(=O)N(C)C)c1` [Example 11, N′-[3-(2-[(3-chloro-4-fluorophenyl)amino]-4-{[3-(dimethylamino)propyl]amino}pyrimidin-5-yl)phenyl]-N,N-dimethylsulfonamide] was 18.2%. The value for `CC(=O)c1ccc(-c2cnc(Nc3ccc(F)c(Cl)c3)nc2NCCCN(C)C)s1` [Example 12, 1-{5-[2-(3-chloro-4-fluorophenylamino)-4-[3-(dimethylamino)propylamino)pyrimidin-5-yl]thiophen-2-yl}ethanone] was 108%; that for `CN(C)CCCNc1nc(Nc2ccc(F)c(Cl)c2)ncc1-c1ccc(F)c(C#N)c1` [Example 13, 5-{2-(3-chloro-4-fluorophenylamino)-4-[3-(dimethylamino)propylamino]pyrimidin-5-yl}-2-fluorobenzonitrile] was 102%. Then `CN(C)CCCNc1nc(Nc2ccc(F)c(Cl)c2)ncc1-c1cccc([N+](=O)[O-])c1` [Example 14, N^2-(3-chloro-4-fluorophenyl)-N^4-[3-(dimethylamino)propyl]-5-(3-nitrophenyl) pyrimidin-2,4-diamine], with 100%; and `CN(C)CCCNc1nc(Nc2ccc(F)c(Cl)c2)ncc1-c1cncc(C#N)c1` [Example 15, 5-{2-(3-chloro-4-fluorophenylamino)-4-[3-(dimethylamino)propylamino]pyrimidin-5-yl}nicotinitrile], with 100%; and `CN(C)CCCNc1nc(Nc2ccc(F)c(Cl)c2)ncc1-c1cn([Si](C)(C)C(C)(C)C)c2ccccc12` [Example 16, 5-[1-(tert-butyldimethylsilyl)-1H-indol-3-yl]-N^2-(3-chloro-4-fluorophenyl)-N^4-[3-(dimethylamino)propyl] pyrimidin-2,4-diamine], with 55.3%. With `CN(C)CCCNc1nc(Nc2ccc(F)c(Cl)c2)ncc1-c1ccc(C(=O)O)s1` [Example 17, 5-{2-(3-chloro-4-fluorophenylamino)-4-[3-(dimethylamino)propylamino]pyrimidin-5-yl}thiophene-2-carboxylic acid], the inhibition at 13 µM turned out to be 54.8%.

For `COc1ccc(-c2cnc(Nc3ccc(F)c(Cl)c3)nc2NCCCN(C)C)cn1` [Example 18, N^2-(3-chloro-4-fluorophenyl)-N^4-[3-(dimethylamino)propyl]-5-(6-methoxy-pyridin-3-yl)pyrimidin-2,4-diamine], the inhibition at 13 µM worked out at 96.6%. Then `CN(C)CCCNc1nc(Nc2ccc(F)c(Cl)c2)ncc1-c1cnc(N)nc1` [Example 19, N^2-(3-chloro-4-fluorophenyl)-N^4-[3-(dimethylamino)propyl]-5,5′-bipyrimidin-2,2′,4-triamine], with 95.8%; and `CN(C)CCCNc1nc(Nc2ccc(F)c(Cl)c2)ncc1-c1cn[nH]c1` [Example 20, N^2-(3-chloro-4-fluorophenyl)-N^4-[3-(dimethylamino)propyl]-5-(1H-pyrazol-4-yl)pyrimidine-2,4-diamine], with 74.6%. For the compound `CN(C)CCCNc1nc(Nc2ccc(F)c(Cl)c2)ncc1-c1ccc(N)nc1` [Example 21, 5-(6-aminopyridin-3-yl)-N^2-(3-chloro-4-fluorophenyl)-N^4-[3-(dimethylamino)propyl]pyrimidine-2,4-diamine], the inhibition at 13 µM worked out at 71.7%.

In the case of `COC(=O)c1cc2cc(-c3cnc(Nc4ccc(F)c(Cl)c4)nc3NCCCN(C)C)ccc2s1` [Example 22, Methyl 5-{2-(3-chloro-4-fluorophenylamino)-4-[3-(dimethylamino)propylamino]pyrimidin-5-yl}benzo[b]thiophene-2-carboxylate], the inhibition at 13 µM was determined as 85.3%. As to `CN(C)CCCNc1nc(Nc2ccc(F)c(Cl)c2)ncc1-c1cccnc1` [Example 23, N^2-(3-chloro-4-fluorophenyl)-N^4-[3-(dimethylamino)propyl]-5-pyridin-3-ylpyrimidin-2,4-diamine], the inhibition at 13 µM stood at 95.8%. For `CN(C)CCCNc1nc(Nc2ccc(F)c(Cl)c2)ncc1-c1ccc(/C=C/C(=O)O)cc1` [Example 24, (2E)-3-[4-(2-[(3-chloro-4-fluorophenyl)amino]-4-{[3-(dimethylamino)propyl]-amino}pyrimidin-5-yl)phenyl]prop-2-enoic acid], the inhibition at 13 µM stood at 98.1%. Regarding `COc1ccc(-c2cnc(Nc3ccc(F)c(Cl)c3)nc2NCCCN(C)C)cc1` [Example 25, N^2-(3-chloro-4-fluorophenyl)-N^4-[3-(dimethylamino)propyl]-5-(4-methoxyphenyl)-pyrimidine-2,4-diamine], the inhibition at 13 µM came to 90.5%.

As to `COc1cccc(-c2cnc(Nc3ccc(F)c(Cl)c3)nc2NCCCN(C)C)c1` [Example 26, N^2-(3-chloro-4-fluorophenyl)-N^4-[3-(dimethylamino)propyl]-5-(3-methoxyphenyl)-pyrimidine-2,4-diamine], the inhibition at 13 µM was found to be 91.7%.
